Data published in ChEMBL document CHEMBL3885861, “Open TG-GATES”.

Species: Rattus norvegicus
Assay: Open TG-GATES - Regimen: Single
Assay type: toxicity, organism-based, Sprague-Dawley
Parameters: regimen Single, gender Male, age 6 weeks
Conditions: in vivo, po, route gavage; for APTT / Bas / Eos / Fbg / Hb / Ht / Lym / MCH / MCHC / MCV / Mono / Neu / PT / Plat / RBC / Ret / WBC: tissue Blood; for KIDNEY_L / KIDNEY_R / KIDNEY_TOTAL: tissue Kidney; for LIVER: tissue Liver; for A/G / ALP / ALT / AST / BUN / CRE / Ca / Cl / DBIL / GLC / IP / K / LDH / Na / PL / RALB / TBIL / TC / TG / TP / gamma-GTP: tissue Plasma
[1] = 50 mg/kg, 3 h, dose level Middle
[2] = 50 mg/kg, 6 h, dose level Middle
[3] = 50 mg/kg, 9 h, dose level Middle
[4] = 50 mg/kg, 24 h, dose level Middle
[5] = 150 mg/kg, 3 h, dose level High
[6] = 150 mg/kg, 6 h, dose level High
[7] = 150 mg/kg, 9 h, dose level High
[8] = 150 mg/kg, 24 h, dose level High

## O=c1ccc2ccccc2o1 [COUMARIN]
[1]
  TERMINAL_BW: 184.1 g
  APTT: 16.3 s
  Bas: 0%
  Eos: 0.6%
  Fbg: 198 mg/dL
  Hb: 13.4 g/dL
  Ht: 40.4%
  Lym: 81.4%
  MCH: 21.9 pg
  MCHC: 33.2%
  MCV: 65.9 fL
  Mono: 4%
  Neu: 14.2%
  PT: 12.7 s
  Plat: 114.8 x10_4/uL
  RBC: 613.6 x10_4/ul
  Ret: 9.3%
  WBC: 104.2 x10_2/uL
  KIDNEY_L: 0.9 g
  KIDNEY_R: 0.9 g
  KIDNEY_TOTAL: 1.7 g
  LIVER: 8.1 g
  A/G: 2.3
  ALP: 989.4 IU/L
  ALT: 39.4 IU/L
  AST: 68 IU/L
  BUN: 12 mg/dL
  CRE: 0.5 mg/dL
  Ca: 10.7 mg/dL
  Cl: 103.2 meq/L
  DBIL: 0.032 mg/dL
  GLC: 191.4 mg/dL
  IP: 10.4 mg/dL
  K: 4.7 meq/L
  LDH: 74.4 IU/L
  Na: 138 meq/L
  PL: 141 mg/dL
  RALB: 3.8 g/dL
  TBIL: 0.3 mg/dL
  TC: 76.4 mg/dL
  TG: 49.8 mg/dL
  TP: 5.5 g/dL
  gamma-GTP: 1 IU/L
[2]
  TERMINAL_BW: 180.4 g
  APTT: 16.5 s
  Bas: 0%
  Eos: 0.8%
  Fbg: 210.2 mg/dL
  Hb: 13.5 g/dL
  Ht: 40.4%
  Lym: 79.8%
  MCH: 21.7 pg
  MCHC: 33.3%
  MCV: 65 fL
  Mono: 5.8%
  Neu: 13.8%
  PT: 12.8 s
  Plat: 104.8 x10_4/uL
  RBC: 620.8 x10_4/ul
  Ret: 9.7%
  WBC: 103 x10_2/uL
  KIDNEY_L: 0.8 g
  KIDNEY_R: 0.9 g
  KIDNEY_TOTAL: 1.7 g
  LIVER: 7.7 g
  A/G: 2.1
  ALP: 1018 IU/L
  ALT: 37.2 IU/L
  AST: 70 IU/L
  BUN: 11.4 mg/dL
  CRE: 0.5 mg/dL
  Ca: 10.4 mg/dL
  Cl: 106 meq/L
  DBIL: 0.004 mg/dL
  GLC: 183 mg/dL
  IP: 10.2 mg/dL
  K: 5 meq/L
  LDH: 98.6 IU/L
  Na: 138.4 meq/L
  PL: 155.6 mg/dL
  RALB: 3.7 g/dL
  TBIL: 0.3 mg/dL
  TC: 89 mg/dL
  TG: 62.4 mg/dL
  TP: 5.6 g/dL
  gamma-GTP: 1.4 IU/L
[3]
  TERMINAL_BW: 175.7 g
  APTT: 16.7 s
  Bas: 0%
  Eos: 0.6%
  Fbg: 186.4 mg/dL
  Hb: 13.3 g/dL
  Ht: 40.2%
  Lym: 77.6%
  MCH: 22.1 pg
  MCHC: 33.2%
  MCV: 66.6 fL
  Mono: 6.2%
  Neu: 15.6%
  PT: 13 s
  Plat: 102.3 x10_4/uL
  RBC: 606 x10_4/ul
  Ret: 9.6%
  WBC: 95.4 x10_2/uL
  KIDNEY_L: 0.8 g
  KIDNEY_R: 0.8 g
  KIDNEY_TOTAL: 1.7 g
  LIVER: 7.2 g
  A/G: 2.1
  ALP: 1020.8 IU/L
  ALT: 38.6 IU/L
  AST: 74.2 IU/L
  BUN: 11.4 mg/dL
  CRE: 0.5 mg/dL
  Ca: 11.1 mg/dL
  Cl: 106 meq/L
  DBIL: 0.052 mg/dL
  GLC: 189.6 mg/dL
  IP: 10.7 mg/dL
  K: 5.1 meq/L
  LDH: 104.6 IU/L
  Na: 139 meq/L
  PL: 141.4 mg/dL
  RALB: 3.7 g/dL
  TBIL: 0.3 mg/dL
  TC: 79.4 mg/dL
  TG: 63 mg/dL
  TP: 5.5 g/dL
  gamma-GTP: 1 IU/L
[4]
  TERMINAL_BW: 189.1 g
  APTT: 15.5 s
  Bas: 0%
  Eos: 1.6%
  Fbg: 192 mg/dL
  Hb: 13.4 g/dL
  Ht: 40.2%
  Lym: 76.4%
  MCH: 22 pg
  MCHC: 33.4%
  MCV: 66 fL
  Mono: 11.4%
  Neu: 11.2%
  PT: 12.4 s
  Plat: 110.8 x10_4/uL
  RBC: 609 x10_4/ul
  Ret: 8.4%
  WBC: 100 x10_2/uL
  KIDNEY_L: 0.9 g
  KIDNEY_R: 0.9 g
  KIDNEY_TOTAL: 1.8 g
  LIVER: 9.4 g
  A/G: 2.3
  ALP: 978.2 IU/L
  ALT: 48 IU/L
  AST: 74.6 IU/L
  BUN: 15 mg/dL
  CRE: 0.6 mg/dL
  Ca: 10.9 mg/dL
  Cl: 105.8 meq/L
  DBIL: 0.012 mg/dL
  GLC: 186.8 mg/dL
  IP: 8 mg/dL
  K: 5.1 meq/L
  LDH: 113 IU/L
  Na: 138.2 meq/L
  PL: 140.2 mg/dL
  RALB: 3.8 g/dL
  TBIL: 0.3 mg/dL
  TC: 77 mg/dL
  TG: 66.6 mg/dL
  TP: 5.5 g/dL
  gamma-GTP: 1.2 IU/L
[5]
  TERMINAL_BW: 182 g
  APTT: 16 s
  Bas: 0%
  Eos: 0.6%
  Fbg: 201.2 mg/dL
  Hb: 13.9 g/dL
  Ht: 42.2%
  Lym: 73.6%
  MCH: 22.2 pg
  MCHC: 33%
  MCV: 67.3 fL
  Mono: 5%
  Neu: 20.8%
  PT: 12.6 s
  Plat: 131.8 x10_4/uL
  RBC: 627.6 x10_4/ul
  Ret: 9.9%
  WBC: 86 x10_2/uL
  KIDNEY_L: 0.8 g
  KIDNEY_R: 0.9 g
  KIDNEY_TOTAL: 1.7 g
  LIVER: 8.3 g
  A/G: 2.1
  ALP: 1017.8 IU/L
  ALT: 45.4 IU/L
  AST: 76.4 IU/L
  BUN: 11.4 mg/dL
  CRE: 0.4 mg/dL
  Ca: 10.7 mg/dL
  Cl: 100.6 meq/L
  DBIL: 0 mg/dL
  GLC: 220.8 mg/dL
  IP: 11.2 mg/dL
  K: 4.3 meq/L
  LDH: 175 IU/L
  Na: 137.8 meq/L
  PL: 158.4 mg/dL
  RALB: 3.8 g/dL
  TBIL: 0.2 mg/dL
  TC: 89.6 mg/dL
  TG: 53 mg/dL
  TP: 5.7 g/dL
  gamma-GTP: 1.6 IU/L
[6]
  TERMINAL_BW: 176.6 g
  APTT: 16.5 s
  Bas: 0%
  Eos: 0.6%
  Fbg: 210.4 mg/dL
  Hb: 14.8 g/dL
  Ht: 44.4%
  Lym: 68.4%
  MCH: 21.4 pg
  MCHC: 33.2%
  MCV: 64.4 fL
  Mono: 7.4%
  Neu: 24.2%
  PT: 13 s
  Plat: 111.1 x10_4/uL
  RBC: 690.2 x10_4/ul
  Ret: 8.7%
  WBC: 61.8 x10_2/uL
  KIDNEY_L: 0.8 g
  KIDNEY_R: 0.8 g
  KIDNEY_TOTAL: 1.6 g
  LIVER: 7.3 g
  A/G: 2.2
  ALP: 951.6 IU/L
  ALT: 45.2 IU/L
  AST: 77.6 IU/L
  BUN: 16 mg/dL
  CRE: 0.5 mg/dL
  Ca: 10.3 mg/dL
  Cl: 102.4 meq/L
  DBIL: 0.008 mg/dL
  GLC: 190.6 mg/dL
  IP: 10.1 mg/dL
  K: 4.5 meq/L
  LDH: 203.2 IU/L
  Na: 138 meq/L
  PL: 144.2 mg/dL
  RALB: 4 g/dL
  TBIL: 0.2 mg/dL
  TC: 94.4 mg/dL
  TG: 23.4 mg/dL
  TP: 5.9 g/dL
  gamma-GTP: 1.4 IU/L
[7]
  TERMINAL_BW: 175.4 g
  APTT: 16.4 s
  Bas: 0%
  Eos: 1%
  Fbg: 196.4 mg/dL
  Hb: 14.5 g/dL
  Ht: 43.8%
  Lym: 76.8%
  MCH: 21.6 pg
  MCHC: 33.1%
  MCV: 65.2 fL
  Mono: 8%
  Neu: 14.4%
  PT: 13.2 s
  Plat: 100.6 x10_4/uL
  RBC: 672.6 x10_4/ul
  Ret: 9.7%
  WBC: 79.6 x10_2/uL
  KIDNEY_L: 0.8 g
  KIDNEY_R: 0.8 g
  KIDNEY_TOTAL: 1.6 g
  LIVER: 7.3 g
  A/G: 2.1
  ALP: 950 IU/L
  ALT: 37.4 IU/L
  AST: 75.8 IU/L
  BUN: 15.2 mg/dL
  CRE: 0.5 mg/dL
  Ca: 10.6 mg/dL
  Cl: 102.4 meq/L
  DBIL: 0.04 mg/dL
  GLC: 182.8 mg/dL
  IP: 9.8 mg/dL
  K: 4.4 meq/L
  LDH: 153.2 IU/L
  Na: 137.4 meq/L
  PL: 147.2 mg/dL
  RALB: 3.8 g/dL
  TBIL: 0.3 mg/dL
  TC: 93 mg/dL
  TG: 22.4 mg/dL
  TP: 5.6 g/dL
  gamma-GTP: 1.2 IU/L
[8]
  TERMINAL_BW: 177.1 g
  APTT: 16 s
  Bas: 0%
  Eos: 1.2%
  Fbg: 181.2 mg/dL
  Hb: 14 g/dL
  Ht: 42%
  Lym: 77.2%
  MCH: 21.6 pg
  MCHC: 33.2%
  MCV: 65.1 fL
  Mono: 9.6%
  Neu: 12.6%
  PT: 12.9 s
  Plat: 118.7 x10_4/uL
  RBC: 645.8 x10_4/ul
  Ret: 7.5%
  WBC: 85.4 x10_2/uL
  KIDNEY_L: 0.8 g
  KIDNEY_R: 0.9 g
  KIDNEY_TOTAL: 1.7 g
  LIVER: 8.5 g
  A/G: 2.1
  ALP: 1067.4 IU/L
  ALT: 40.2 IU/L
  AST: 85.8 IU/L
  BUN: 15.6 mg/dL
  CRE: 0.6 mg/dL
  Ca: 11 mg/dL
  Cl: 105.2 meq/L
  DBIL: 0.016 mg/dL
  GLC: 179 mg/dL
  IP: 8.6 mg/dL
  K: 5.3 meq/L
  LDH: 202.8 IU/L
  Na: 137.8 meq/L
  PL: 121.2 mg/dL
  RALB: 3.7 g/dL
  TBIL: 0.4 mg/dL
  TC: 68.2 mg/dL
  TG: 42.6 mg/dL
  TP: 5.5 g/dL
  gamma-GTP: 1.2 IU/L
